Key:
[1] = test system: late watergrass; experiment: Test Example 1: herbicidal activity, application before weed generation under submerged conditions (Table 16, symbol A); assay type: in vivo, late watergrass (Echinochloa oryzicola)
Summary of the method: (§1)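 Alluvial soil was flooded to 4 cm depth, weed seeds were sown mixed and 2.5-leaf rice seedlings were transplanted. On sowing day, the compound's emulsion, diluted in water to a set dose, was applied to the water surface. Plants grew at 25–30 °C and were scored 0–5 after three weeks.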

[2] = test system: Japanese bulrush; experiment: Test Example 1: herbicidal activity, application before weed generation under submerged conditions (Table 16, symbol B); assay type: in vivo, Japanese bulrush (Schoenoplectus juncoides)
Summary of the method: as §1

[3] = test system: oval-leafed pondweed; experiment: Test Example 1: herbicidal activity, application before weed generation under submerged conditions (Table 16, symbol C); assay type: in vivo, oval-leafed pondweed (Monochoria vaginalis)
Summary of the method: as §1

[4] = test system: barnyard grass; experiment: Test Example 3: herbicidal effect by foliage application, Wagner pot (Table 18, symbol H); assay type: in vivo, barnyard grass (Echinochloa crus-galli); conditions: amount of applied herbicide 320 g/ha
Summary of the method: (§2)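 Plants were sown in alluvial soil held under 0.1–0.5 cm standing water and grown 14 days in a greenhouse at 25–30 °C. An emulsifiable formulation, water-diluted to the set dose, was then sprayed onto the foliage, and effects were scored three weeks later using previously defined criteria.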

[5] = test system: Chinese sprangletop; experiment: Test Example 3: herbicidal effect by foliage application, Wagner pot (Table 18, symbol D); assay type: in vivo, chinese sprangletop (Leptochloa chinensis); conditions: amount of applied herbicide 320 g/ha
Summary of the method: as §2

[6] = test system: rice flat sedge; experiment: Test Example 3: herbicidal effect by foliage application, Wagner pot (Table 18, symbol E); assay type: in vivo, rice flat sedge (Cyperus iria); conditions: amount of applied herbicide 320 g/ha
Summary of the method: as §2

[7] = test system: southern crabgrass; experiment: Test Example 4: herbicidal effect by soil treatment (Table 19, symbol F); assay type: in vivo, southern crabgrass (Digitaria ciliaris); conditions: amount of applied herbicide 320 g/ha
Summary of the method: (§3)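 Pre-emergence style soil spray: seeds under ~1.5 cm sterilized diluvial soil received a uniform coat of emulsion diluted to the predetermined herbicide amount. Greenhouse 25–30° C; readout at week three on previously defined criteria.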

[8] = test system: green foxtail; experiment: Test Example 4: herbicidal effect by soil treatment (Table 19, symbol G); assay type: in vivo, green foxtail (Setaria viridis); conditions: amount of applied herbicide 320 g/ha
Summary of the method: as §3

[9] = test system: barnyard grass; experiment: Test Example 4: herbicidal effect by soil treatment (Table 19, symbol H); assay type: in vivo, barnyard grass (Echinochloa crus-galli); conditions: amount of applied herbicide 320 g/ha
Summary of the method: as §3

[10] = test system: wild oat; experiment: Test Example 4: herbicidal effect by soil treatment (Table 19, symbol I); assay type: in vivo, wild oat (Avena fatua); conditions: amount of applied herbicide 320 g/ha
Summary of the method: as §3

[11] = test system: Italian ryegrass; experiment: Test Example 4: herbicidal effect by soil treatment (Table 19, symbol K); assay type: in vivo, Italian ryegrass (Lolium multiflorum); conditions: amount of applied herbicide 320 g/ha
Summary of the method: as §3

[12] = test system: windgrass; experiment: Test Example 4: herbicidal effect by soil treatment (Table 19, symbol L); assay type: in vivo, windgrass (Apera spica-venti); conditions: amount of applied herbicide 320 g/ha
Summary of the method: as §3

[13] = test system: velvetleaf; experiment: Test Example 4: herbicidal effect by soil treatment (Table 19, symbol M); assay type: in vivo, velvetleaf (Abutilon theophrasti); conditions: amount of applied herbicide 320 g/ha
Summary of the method: as §3

[14] = test system: redroot pigweed; experiment: Test Example 4: herbicidal effect by soil treatment (Table 19, symbol N); assay type: in vivo, redroot pigweed (Amaranthus retroflexus); conditions: amount of applied herbicide 320 g/ha
Summary of the method: as §3

[15] = test system: lambsquarters; experiment: Test Example 4: herbicidal effect by soil treatment (Table 19, symbol O); assay type: in vivo, lambsquarters (Chenopodium album); conditions: amount of applied herbicide 320 g/ha
Summary of the method: as §3

[16] = test system: false cleavers; experiment: Test Example 4: herbicidal effect by soil treatment (Table 19, symbol Q); assay type: in vivo, false cleavers (Galium spurium); conditions: amount of applied herbicide 320 g/ha
Summary of the method: as §3

[17] = test system: southern crabgrass; experiment: Test Example 5: herbicidal effect by foliage application, plastic box (Table 20, symbol F); assay type: in vivo, southern crabgrass (Digitaria ciliaris); conditions: foliage application
Summary of the method: (§4)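 Plants were sown into sterilized diluvial soil under about 1.5 cm cover and kept in a greenhouse at 25° C. to 30° C. Fourteen days on, foliage received an even spray of the diluted emulsion. Herbicidal or crop effect was judged three weeks afterwards.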

[18] = test system: green foxtail; experiment: Test Example 5: herbicidal effect by foliage application, plastic box (Table 20, symbol G); assay type: in vivo, green foxtail (Setaria viridis); conditions: foliage application
Summary of the method: as §4

[19] = test system: barnyard grass; experiment: Test Example 5: herbicidal effect by foliage application, plastic box (Table 20, symbol H); assay type: in vivo, barnyard grass (Echinochloa crus-galli); conditions: foliage application
Summary of the method: as §4

[20] = test system: wild oat; experiment: Test Example 5: herbicidal effect by foliage application, plastic box (Table 20, symbol I); assay type: in vivo, wild oat (Avena fatua); conditions: foliage application
Summary of the method: as §4

[21] = test system: blackgrass; experiment: Test Example 5: herbicidal effect by foliage application, plastic box (Table 20, symbol J); assay type: in vivo, blackgrass (Alopecurus myosuroides); conditions: foliage application
Summary of the method: as §4

[22] = test system: Italian ryegrass; experiment: Test Example 5: herbicidal effect by foliage application, plastic box (Table 20, symbol K); assay type: in vivo, Italian ryegrass (Lolium multiflorum); conditions: foliage application
Summary of the method: as §4

[23] = test system: windgrass; experiment: Test Example 5: herbicidal effect by foliage application, plastic box (Table 20, symbol L); assay type: in vivo, windgrass (Apera spica-venti); conditions: foliage application
Summary of the method: as §4

[24] = test system: velvetleaf; experiment: Test Example 5: herbicidal effect by foliage application, plastic box (Table 20, symbol M); assay type: in vivo, velvetleaf (Abutilon theophrasti); conditions: foliage application
Summary of the method: as §4

[25] = test system: redroot pigweed; experiment: Test Example 5: herbicidal effect by foliage application, plastic box (Table 20, symbol N); assay type: in vivo, redroot pigweed (Amaranthus retroflexus); conditions: foliage application, AAH 320 g/ha, evaluated three weeks after application
Summary of the method: as §4

[26] = test system: lambsquarters; experiment: Test Example 5: herbicidal effect by foliage application, plastic box (Table 20, symbol O); assay type: in vivo, lambsquarters (Chenopodium album); conditions: foliage application
Summary of the method: as §4

[27] = test system: chickweed; experiment: Test Example 5: herbicidal effect by foliage application, plastic box (Table 20, symbol P); assay type: in vivo, common chickweed (Stellaria media); conditions: foliage application, AAH 320 g/ha, evaluated three weeks after application
Summary of the method: as §4

[28] = test system: persian speedwell; experiment: Test Example 5: herbicidal effect by foliage application, plastic box (Table 20, symbol R); assay type: in vivo, Persian speedwell (Veronica persica); conditions: foliage application
Summary of the method: as §4

[29] = test system: blackgrass; experiment: Test Example 4: herbicidal effect by soil treatment (Table 19, symbol J); assay type: in vivo, blackgrass (Alopecurus myosuroides); conditions: amount of applied herbicide 320 g/ha
Summary of the method: as §3

[30] = AAH 320 g/ha, evaluated three weeks after application
[31] = amount of applied herbicide 320 g/ha
[32] = 320 g/ha, three weeks after application

SMILES: Cc1nn(C)c(=O)c(-c2c(-c3ccc(COCC(F)(F)F)cc3)sc3ccc(F)cc23)c1O [2-315]
- Herbicidal effect on A: late watergrass (grade 0-5) ([1]; 320 g/ha applied herbicide): 4 (Herbicidal rate of 70% or more and less than 90%)
- Herbicidal effect on B: Japanese bulrush (grade 0-5) ([2]; 320 g/ha applied herbicide): 0 (Herbicidal rate of 5% or less (almost no effect))
- Herbicidal effect on C: oval-leafed pondweed (grade 0-5) ([3]; 320 g/ha applied herbicide): 0 (Herbicidal rate of 5% or less (almost no effect))
- herbicidal effect on H: barnyard grass [4]: 5 (Herbicidal rate of 90% or more (almost completely withered))
- herbicidal effect on D: Chinese sprangletop [5]: 3 (Herbicidal rate of 40% or more and less than 70%)
- herbicidal effect on E: rice flat sedge [6]: 5 (Herbicidal rate of 90% or more (almost completely withered))
- herbicidal effect on F: southern crabgrass [7]: 2 (Herbicidal rate of 20% or more and less than 40%)
- herbicidal effect on G: green foxtail [8]: 3 (Herbicidal rate of 40% or more and less than 70%)
- herbicidal effect on H: barnyard grass [9]: 3 (Herbicidal rate of 40% or more and less than 70%)
- herbicidal effect on I: wild oat [10]: 0 (Herbicidal rate of 5% or less (almost no effect))
- herbicidal effect on K: Italian ryegrass [11]: 4 (Herbicidal rate of 70% or more and less than 90%)
- herbicidal effect on L: windgrass [12]: 0 (Herbicidal rate of 5% or less (almost no effect))
- herbicidal effect on M: velvetleaf [13]: 4 (Herbicidal rate of 70% or more and less than 90%)
- herbicidal effect on N: redroot pigweed [14]: 5 (Herbicidal rate of 90% or more (almost completely withered))
- herbicidal effect on O: lambsquarters [15]: 5 (Herbicidal rate of 90% or more (almost completely withered))
- herbicidal effect on Q: false cleavers [16]: 5 (Herbicidal rate of 90% or more (almost completely withered))
- F: southern crabgrass, herbicidal effect (criteria 0-5) [17, 30]: 4 (Herbicidal rate of 70% or more and less than 90%)
- G: green foxtail, herbicidal effect (criteria 0-5) [18, 30]: 5 (Herbicidal rate of 90% or more (almost completely withered))
- H: barnyard grass, herbicidal effect (criteria 0-5) [19, 30]: 5 (Herbicidal rate of 90% or more (almost completely withered))
- I: wild oat, herbicidal effect (criteria 0-5) [20, 30]: 0 (Herbicidal rate of 5% or less (almost no effect))
- J: blackgrass, herbicidal effect (criteria 0-5) [21, 30]: 5 (Herbicidal rate of 90% or more (almost completely withered))
- K: Italian ryegrass, herbicidal effect (criteria 0-5) [22, 30]: 5 (Herbicidal rate of 90% or more (almost completely withered))
- L: windgrass, herbicidal effect (criteria 0-5) [23, 30]: 5 (Herbicidal rate of 90% or more (almost completely withered))
- M: velvetleaf, herbicidal effect (criteria 0-5) [24, 30]: 5 (Herbicidal rate of 90% or more (almost completely withered))
- N: redroot pigweed, herbicidal effect (criteria 0-5) [25]: 5 (Herbicidal rate of 90% or more (almost completely withered))
- O: lambsquarters, herbicidal effect (criteria 0-5) [26, 30]: 5 (Herbicidal rate of 90% or more (almost completely withered))
- P: chickweed, herbicidal effect (criteria 0-5) [27]: 5 (Herbicidal rate of 90% or more (almost completely withered))
- R: persian speedwell, herbicidal effect (criteria 0-5) [28, 30]: 5 (Herbicidal rate of 90% or more (almost completely withered))

SMILES: COCc1ccc(-c2oc3ccc(F)cc3c2-c2c(O)c(C)nn(C)c2=O)cc1 [9-043]
- Herbicidal effect, A: late watergrass [1, 31]: 3 (Herbicidal rate of 40% or more and less than 70%)
- Herbicidal effect, B: Japanese bulrush [2, 31]: 0 (Herbicidal rate of 5% or less (almost no effect))
- Herbicidal effect, C: oval-leafed pondweed [3, 31]: 2 (Herbicidal rate of 20% or more and less than 40%)
- Herbicidal effect on H (barnyard grass), foliage application [4]: 4 (Herbicidal rate of 70% or more and less than 90%)
- Herbicidal effect on D (Chinese sprangletop), foliage application [5]: 3 (Herbicidal rate of 40% or more and less than 70%)
- Herbicidal effect on E (rice flat sedge), foliage application [6]: 5 (Herbicidal rate of 90% or more (almost completely withered))
- F: southern crabgrass, herbicidal effect grade [7]: 4 (Herbicidal rate of 70% or more and less than 90%)
- G: green foxtail, herbicidal effect grade [8]: 5 (Herbicidal rate of 90% or more (almost completely withered))
- H: barnyard grass, herbicidal effect grade [9]: 4 (Herbicidal rate of 70% or more and less than 90%)
- I: wild oat, herbicidal effect grade [10]: 0 (Herbicidal rate of 5% or less (almost no effect))
- J: blackgrass, herbicidal effect grade [29]: 4 (Herbicidal rate of 70% or more and less than 90%)
- K: Italian ryegrass, herbicidal effect grade [11]: 5 (Herbicidal rate of 90% or more (almost completely withered))
- L: windgrass, herbicidal effect grade [12]: 0 (Herbicidal rate of 5% or less (almost no effect))
- M: velvetleaf, herbicidal effect grade [13]: 4 (Herbicidal rate of 70% or more and less than 90%)
- N: redroot pigweed, herbicidal effect grade [14]: 5 (Herbicidal rate of 90% or more (almost completely withered))
- O: lambsquarters, herbicidal effect grade [15]: 3 (Herbicidal rate of 40% or more and less than 70%)
- Q: false cleavers, herbicidal effect grade [16]: 0 (Herbicidal rate of 5% or less (almost no effect))
- herbicidal effect on southern crabgrass (F) [17, 32]: 3 (Herbicidal rate of 40% or more and less than 70%)
- herbicidal effect on green foxtail (G) [18, 32]: 4 (Herbicidal rate of 70% or more and less than 90%)
- herbicidal effect on barnyard grass (H) [19, 32]: 3 (Herbicidal rate of 40% or more and less than 70%)
- herbicidal effect on wild oat (I) [20, 32]: 0 (Herbicidal rate of 5% or less (almost no effect))
- herbicidal effect on blackgrass (J) [21, 32]: 4 (Herbicidal rate of 70% or more and less than 90%)
- herbicidal effect on Italian ryegrass (K) [22, 32]: 5 (Herbicidal rate of 90% or more (almost completely withered))
- herbicidal effect on windgrass (L) [23, 32]: 0 (Herbicidal rate of 5% or less (almost no effect))
- herbicidal effect on velvetleaf (M) [24, 32]: 4 (Herbicidal rate of 70% or more and less than 90%)
- herbicidal effect on lambsquarters (O) [26, 32]: 4 (Herbicidal rate of 70% or more and less than 90%)
- herbicidal effect on persian speedwell (R) [28, 32]: 5 (Herbicidal rate of 90% or more (almost completely withered))

Source: patent publication US20230085307A1, “PYRIDAZINONE COMPOUND AND HERBICIDE” (NISSAN CHEMICAL CORPORATION, priority 2019, published 2023)
